Laboratory results published in ChEMBL document CHEMBL5338790, “Discovery of Subcellular-Targeted Aza-BODIPY Photosensitizers for Efficient Photodynamic Antitumor Therapy” (J Med Chem, 2023).
Activity calls are given as the source filed them. The rule behind the calls is not given here.

Tests used:
[1] = Drug localization in mitochondria of human HeLa cells at 5 uM incubated for 30 mins by MitoTracker Green FM dye based confocal scanning microscopic analysis; assay type: ADME; conditions: 0.5 h
[2] = Drug localization in lysosome of human HeLa cells at 5 uM incubated for 30 mins by Lyso-tracker Green DND-26 dye based confocal scanning microscopic analysis; assay type: ADME, subcellular; conditions: 0.5 h
[3] = Cytotoxicity against HUVEC cells assessed as inhibition of cell viability under dark condition incubated for 27 hrs by CCK8 assay; assay type: toxicity, cell-based; conditions: human
HeLa [4] = test: Induction of ROS production in human HeLa cells upto 200 nM preincubated for 2 hrs followed by H2DCFDA probe exposure for 30 mins and subsequent removal of probe with photo-irradiation at 16 J/cm2 by confocal scanning microscopic analysis; assay type: functional, cell-based; conditions: time 2.5 hrs
[5] = Drug localization in endoplasmic reticulum of human HeLa cells at 5 uM incubated for 30 mins by ER-Tracker Green dye based confocal scanning microscopic analysis; assay type: ADME; conditions: 0.5 h
HepG2 = test: Photodynamic cytotoxicity against human HepG2 cells assessed as inhibition of cell viability incubated for 3 hrs followed by photo-irradiation at 54 J/cm2 measured after 24 hrs by CCK8 assay; assay type: functional, cell-based; conditions: HepG2, light or radiation study
[6] = Cytotoxicity against human HepG2 cells assessed as inhibition of cell viability under dark condition incubated for 27 hrs by CCK8 assay; assay type: toxicity, cell-based
HeLa [7] = test: Induction of ROS production in human HeLa cells upto 200 nM preincubated for 2 hrs followed by H2DCFDA probe exposure for 30 mins and subsequent removal of probe by confocal scanning microscopic analysis; assay type: functional, cell-based; conditions: time 2.5 hrs
[8] = Drug uptake in human HeLa cells at 5 uM incubated for 3 hrs by confocal scanning microscopy; assay type: ADME, cell-based
[9] = Drug uptake in human HeLa cells at 5 uM by confocal scanning microscopy; assay type: ADME, cell-based; conditions: 3 h, TDE = time-dependent effect
HeLa [10] = test: Induction of ROS production in human HeLa cells preincubated for 2 hrs followed by H2DCFDA probe exposure for 30 mins and subsequent removal of probe with photo-irradiation at 16 J/cm2 by confocal scanning microscopic analysis; assay type: functional, cell-based; conditions: dose <= 200.0 nM, time 2.5 hrs
[11] = Cytotoxicity against human HeLa cells assessed as inhibition of cell viability under dark condition incubated for 27 hrs by CCK8 assay; assay type: toxicity, cell-based
[12] = Cytotoxicity against mouse B16-F10 cells assessed as inhibition of cell viability under dark condition incubated for 27 hrs by CCK8 assay; assay type: toxicity, cell-based
B16-F10 = test: Photodynamic cytotoxicity against mouse B16-F10 cells assessed as inhibition of cell viability incubated for 3 hrs followed by photo-irradiation at 54 J/cm2 measured after 24 hrs by CCK8 assay; assay type: functional, cell-based; conditions: B16-F10, light or radiation study
HUVEC = test: Photodynamic cytotoxicity against HUVEC cells assessed as inhibition of cell viability incubated for 3 hrs followed by photo-irradiation at 54 J/cm2 measured after 24 hrs by CCK8 assay; assay type: functional, cell-based; conditions: Homo sapiens, light or radiation study
HeLa [13] = test: Photodynamic cytotoxicity against human HeLa cells assessed as inhibition of cell viability incubated for 3 hrs followed by photo-irradiation at 54 J/cm2 measured after 24 hrs by CCK8 assay; assay type: functional, cell-based; conditions: light or radiation study
[14] = Toxicity in Balb/C nu/nu mouse xenografted with human HeLa cells assessed as change in kidney histology at 2.5 umol/kg, iv with photo-irradiation at 30 J/cm2 after 1 hr of compound administration measured after 24 days by H and E staining based analysis; assay type: organism-based; conditions: in vivo, 576 h, dose 2.5 µmol/kg, time 24 day
[15] = Toxicity in Balb/C nu/nu mouse xenografted with human HeLa cells assessed as change in lung histology at 2.5 umol/kg, iv with photo-irradiation at 30 J/cm2 after 1 hr of compound administration measured after 24 days by H and E staining based analysis; assay type: organism-based; conditions: in vivo, 576 h, dose 2.5 µmol/kg, time 24 day
HeLa [16] = test: Antitumor activity against human HeLa cells xenografted in Balb/C nu/nu mouse assessed as reduction in tumor histology at 2.5 umol/kg, iv with photo-irradiation at 30 J/cm2 after 1 hr of compound administration measured after 24 days by H and E staining based analysis; assay type: functional, organism-based; conditions: dose 2.5 µmol/kg, time 24.0 day
[17] = Toxicity in Balb/C nu/nu mouse xenografted with human HeLa cells assessed as increase in body weight at 2.5 umol/kg, iv with photo-irradiation at 30 J/cm2 after 1 hr of compound administration measured for 24 days; assay type: organism-based; conditions: in vivo, 576 h, dose 2.5 µmol/kg, time 24 day
HeLa [18] = test: Antitumor activity against human HeLa cells xenografted in Balb/C nu/nu mouse assessed as tumor growth inhibition at 2.5 umol/kg, iv with photo-irradiation at 30 J/cm2 after 1 hr of compound administration measured for 6 days; assay type: functional, organism-based; conditions: dose 2.5 µmol/kg, time 6.0 day
[19] = Toxicity in Balb/C nu/nu mouse xenografted with human HeLa cells assessed as change in spleen histology at 2.5 umol/kg, iv with photo-irradiation at 30 J/cm2 after 1 hr of compound administration measured after 24 days by H and E staining based analysis; assay type: organism-based; conditions: in vivo, 576 h, dose 2.5 µmol/kg, time 24 day
[20] = Toxicity in Balb/C nu/nu mouse xenografted with human HeLa cells assessed as change in heart histology at 2.5 umol/kg, iv with photo-irradiation at 30 J/cm2 after 1 hr of compound administration measured after 24 days by H and E staining based analysis; assay type: organism-based; conditions: in vivo, 576 h, dose 2.5 µmol/kg, time 24 day
[21] = Toxicity in Balb/C nu/nu mouse xenografted with human HeLa cells assessed as drug tolerance at 2.5 umol/kg, iv with photo-irradiation at 30 J/cm2 after 1 hr of compound administration measured for 24 days; assay type: organism-based; conditions: in vivo, 576 h, dose 2.5 µmol/kg, time 24 day
[22] = Toxicity in Balb/C nu/nu mouse xenografted with human HeLa cells assessed as change in liver histology at 2.5 umol/kg, iv with photo-irradiation at 30 J/cm2 after 1 hr of compound administration measured after 24 days by H and E staining based analysis; assay type: organism-based; conditions: in vivo, 576 h, dose 2.5 µmol/kg, time 24 day
HeLa [23] = test: Antitumor activity against human HeLa cells xenografted in Balb/C nu/nu mouse assessed as tumor growth inhibition at 2.5 umol/kg, iv with photo-irradiation at 30 J/cm2 after 1 hr of compound administration measured for 24 days; assay type: functional, organism-based; conditions: dose 2.5 µmol/kg, time 24.0 day

Row | Drug uptake [9] | Compound | IC50 at 27 h [3] [µM] | IC50 (HepG2) [nM] | IC50 at 27 h [6] [µM] | IC50 at 27 h [11] [µM] | IC50 at 27 h [12] [µM] | IC50 (B16-F10) [nM] | IC50 (HUVEC) [nM] | IC50 (HeLa [13]) [nM] | further results
1 | Tde | Br.COc1ccc2c(c1)CCc1c(-c3ccccc3)c3n(c1-2)[B-](F)(F)[N+]1=C(c2ccc(OCC(=O)NCCC[P+](c4ccccc4)(c4ccccc4)c4ccccc4)cc2)C(I)=C(c2ccccc2)C1=N3 | 20.1 | 14.3 | 25.8 | 21.3 | 44.4 | 33.7 | 12.2 | 5.5 | Drug uptake [1]: Active; Drug uptake [2]: Not Active; Activity (HeLa [4]): Active; Drug uptake [5]: Not Active; Activity (HeLa [7]): inactive; Drug uptake [8]: Active; Activity (HeLa [10]): Dose-Dependent Effect
2 | Tde | COc1ccc2c(c1)CCc1c(-c3ccccc3)c3n(c1-2)[B-](F)(F)[N+]1=C(c2ccc(OCC(=O)NCCCNC(=O)c4c(F)c(F)c(F)c(F)c4F)cc2)C(I)=C(c2ccccc2)C1=N3 | > 50 | 41.2 | > 50 | > 50 | > 50 | 74.8 | 55.8 | 38.2 | 
3 | Tde | COc1ccc2c(c1)CCc1c(-c3ccccc3)c3n(c1-2)[B-](F)(F)[N+]1=C(c2ccc(OCc4cn(CCCN5CCOCC5)nn4)cc2)C(I)=C(c2ccccc2)C1=N3 | > 50 | 9.1 | > 50 | 25.4 | > 50 | 10.4 | 11.3 | 4.8 | 
4 | Tde | COc1ccc2c(c1)CCc1c(-c3ccccc3)c3n(c1-2)[B-](F)(F)[N+]1=C(c2ccc(OCc4cn(CCCNC(=O)c5c(F)c(F)c(F)c(F)c5F)nn4)cc2)C(I)=C(c2ccccc2)C1=N3 | > 50 | 179 | > 50 | > 50 | > 50 | 413 | 219 | 92 | 

Continued, molecule first:

Row | Compound | Drug uptake [9] | IC50 at 27 h [3] [µM] | IC50 (HepG2) [nM] | IC50 at 27 h [6] [µM] | IC50 at 27 h [11] [µM] | IC50 at 27 h [12] [µM] | IC50 (B16-F10) [nM] | IC50 (HUVEC) [nM] | IC50 (HeLa [13]) [nM] | further results
5 | COc1ccc(C2=[N+]3C(=Nc4c(-c5ccccc5)c5c(n4[B-]3(F)F)-c3ccc(OC)cc3CC5)C(c3ccccc3)=C2I)cc1 | Tde | > 50 | 85.6 | > 50 | > 50 | > 50 | 317 | 88.8 | 62.8 | Activity [14]: Non-Toxic; Activity [15]: Non-Toxic; Activity (HeLa [16]): Active; Activity (HeLa [7]): inactive; Activity [17]: Non-Toxic; Activity (HeLa [10]): Dose-Dependent Effect; Activity (HeLa [18]): Active; Activity [19]: Non-Toxic; Activity [20]: Non-Toxic; Activity [21]: Non-Toxic; Activity [22]: Non-Toxic
6 | C=Cc1c(C)c2cc3nc(c(CC(=O)O)c4[nH]c(cc5nc(cc1[nH]2)C(C)=C5CC)c(C)c4C(=O)O)[C@@H](CCC(=O)O)[C@@H]3C [CHLORIN E6] |  | > 50 | 599 | > 50 | > 50 | > 50 | 2300 | 799 | 955 | Activity [14]: Non-Toxic; Activity [15]: Non-Toxic; Activity [17]: Non-Toxic; Activity (HeLa [23]): inactive; Activity [19]: Non-Toxic; Activity [20]: Non-Toxic; Activity [21]: Non-Toxic; Activity [22]: Non-Toxic
7 | Br.COc1ccc2c(c1)CCc1c(-c3ccccc3)c3n(c1-2)[B-](F)(F)[N+]1=C(c2ccc(OCc4cn(CCC[P+](c5ccccc5)(c5ccccc5)c5ccccc5)nn4)cc2)C(I)=C(c2ccccc2)C1=N3 | Tde | 12.5 | 14.3 | 11.4 | 10.6 | 12.8 | 21 | 13.7 | 2 | 
